Values joined by “and” are separate entries in the source; they are usually repeats but may differ in a detail not shown here. Identical values can stand only once.
System: 168753-222-R-J1-PDC complex spheroid viability
Experiment: Anticancer human tumor 168753-222-R-J1-PDC patient-derived bladder carcinoma cell line growth inhibition [CLK]
Settings: for IC50: curve of first compound; for viability, T/C: stronger effect = lower value
Summary of the method: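 Multi-cell-type spheroids combined patient-derived tumor cells with HUVEC endothelial cells and human mesenchymal stem cells. Paired agents were dosed in half-log steps down from about clinical Cmax, or from 10 microM where Cmax was unknown.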

[1] = second compound 0.0316 µM, first compound 0.0316 µM
[2] = second compound 0.0316 µM, first compound 0.1 µM
[3] = second compound 0.0316 µM, first compound 0.316 µM
[4] = second compound 0.0316 µM, first compound 1 µM
[5] = second compound 0.0316 µM, first compound 3.16 µM
[6] = second compound 0.0316 µM, first compound 10 µM
[7] = second compound 0.1 µM, first compound 0.0316 µM
[8] = second compound 0.1 µM, first compound 0.1 µM
[9] = second compound 0.1 µM, first compound 0.316 µM
[10] = second compound 0.1 µM, first compound 1 µM
[11] = second compound 0.1 µM, first compound 3.16 µM
[12] = second compound 0.1 µM, first compound 10 µM
[13] = second compound 0.316 µM, first compound 0.0316 µM
[14] = second compound 0.316 µM, first compound 0.1 µM
[15] = second compound 0.316 µM, first compound 0.316 µM
[16] = second compound 0.316 µM, first compound 1 µM
[17] = second compound 0.316 µM, first compound 3.16 µM
[18] = second compound 0.316 µM, first compound 10 µM
[19] = second compound 1 µM, first compound 0.0316 µM
[20] = second compound 1 µM, first compound 0.1 µM
[21] = second compound 1 µM, first compound 0.316 µM
[22] = second compound 1 µM, first compound 1 µM
[23] = second compound 1 µM, first compound 3.16 µM
[24] = second compound 1 µM, first compound 10 µM
[25] = second compound 3.16 µM, first compound 0.0316 µM
[26] = second compound 3.16 µM, first compound 0.1 µM
[27] = second compound 3.16 µM, first compound 0.316 µM
[28] = second compound 3.16 µM, first compound 1 µM
[29] = second compound 3.16 µM, first compound 3.16 µM
[30] = second compound 3.16 µM, first compound 10 µM
[31] = second compound 10 µM, first compound 0.0316 µM
[32] = second compound 10 µM, first compound 0.1 µM
[33] = second compound 10 µM, first compound 0.316 µM
[34] = second compound 10 µM, first compound 1 µM
[35] = second compound 10 µM, first compound 3.16 µM
[36] = second compound 10 µM, first compound 10 µM
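Also: viability measured after seven days of drug exposure.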
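For viability, T/C in this document: luminescence signal used as surrogate for viable cell amount; 100% = DMSO vehicle control wells.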

With `COc1cccc2c1C(=O)c1c(O)c3c(c(O)c1C2=O)CC(O)(C(=O)CO)CC3OC1CC(N)C(O)C(C)O1` (configuration not stated) + CNC(=O)c1ccc(Nc2nc(OC3CCCC3)c3c(-c4ccc5nc(C)oc5c4)c[nH]c3n2)c(OC)c1 the IC50 (second compound 0.0316 µM) was 291 nM, the IC50 (second compound 0.1 µM) was 266 nM and the IC50 (second compound 0.316 µM) was 141 nM. The IC50 (second compound 1 µM) was < 31.6 nM, the IC50 (second compound 3.16 µM) was < 31.6 nM and the IC50 (second compound 10 µM) was < 31.6 nM. It also gave a viability, T/C [1] of 83.8%, a viability, T/C [2] of 73.1% and a viability, T/C [3] of 50%. The viability, T/C [4] was 14.6%, the viability, T/C [5] was 13.7% and the viability, T/C [6] was 0.12%. For the same compound, the viability, T/C [7] was 94.5%, the viability, T/C [8] was 72.3% and the viability, T/C [9] was 49.8%. The viability, T/C [10] was 14.9%, the viability, T/C [11] was 15.6% and the viability, T/C [12] was 0.1%. The viability, T/C [13] was 71.9%, the viability, T/C [14] was 57.7% and the viability, T/C [15] was 33.1%. The viability, T/C [16] was 14.1%, the viability, T/C [17] was 8% and the viability, T/C [18] was 0.12%. It also gave a viability, T/C [19] of 30.2%, a viability, T/C [20] of 18.5% and a viability, T/C [21] of 15.2%. For the same compound, the viability, T/C [22] was 14.1%, the viability, T/C [23] was 6.77% and the viability, T/C [24] was 0.13%. It also gave a viability, T/C [25] of 18.4%, a viability, T/C [26] of 17.9% and a viability, T/C [27] of 13.3%. The viability, T/C [28] was 12.1%, the viability, T/C [29] was 2.89% and the viability, T/C [30] was 0.14%. The viability, T/C [31] was 16%, the viability, T/C [32] was 16% and the viability, T/C [33] was 12.1%. It also gave a viability, T/C [34] of 11.2%, a viability, T/C [35] of 0.71% and a viability, T/C [36] of 0.24%.
In the case of `NC(=O)C(=Cn1cnc(-c2cc(C(F)(F)F)cc(C(F)(F)F)c2)n1)c1cncnc1`, the viability, T/C (compound 0.00949 µM) is reported as 102% and 101%, the viability, T/C (compound 0.03 µM) is reported as 76% and 95.7% and the viability, T/C (compound 0.0949 µM) is reported as 52.8% and 83.2%. The viability, T/C (compound 0.3 µM) was 48.1% and 84.1%, the viability, T/C (compound 0.949 µM) was 41.1% and 68.7% and the viability, T/C (compound 3 µM) was 26.5% and 52%.
`NC(=O)C(=Cn1cnc(-c2cc(C(F)(F)F)cc(C(F)(F)F)c2)n1)c1cncnc1` + CNC(=O)c1ccc(Nc2nc(OC3CCCC3)c3c(-c4ccc5nc(C)oc5c4)c[nH]c3n2)c(OC)c1 was tested, and the IC50 (second compound 0.0316 µM) was > 3000 nM, the IC50 (second compound 0.1 µM) was 829 nM and the IC50 (second compound 0.316 µM) was 142 nM. For the same compound, the IC50 (second compound 1 µM) was 10.6 nM, the IC50 (second compound 3.16 µM) was < 9.49 nM and the IC50 (second compound 10 µM) was < 9.49 nM. For the same compound, the viability, T/C (second compound 0.0316 µM, first compound 0.00949 µM) was 103%, the viability, T/C (second compound 0.0316 µM, first compound 0.03 µM) was 105% and the viability, T/C (second compound 0.0316 µM, first compound 0.0949 µM) was 69%. The viability, T/C (second compound 0.0316 µM, first compound 0.3 µM) was 83%, the viability, T/C (second compound 0.0316 µM, first compound 0.949 µM) was 72.6% and the viability, T/C (second compound 0.0316 µM, first compound 3 µM) was 48.9%. For the same compound, the viability, T/C (second compound 0.1 µM, first compound 0.00949 µM) was 105%, the viability, T/C (second compound 0.1 µM, first compound 0.03 µM) was 121% and the viability, T/C (second compound 0.1 µM, first compound 0.0949 µM) was 89.9%. It also gave a viability, T/C (second compound 0.1 µM, first compound 0.3 µM) of 59.7%, a viability, T/C (second compound 0.1 µM, first compound 0.949 µM) of 58.3% and a viability, T/C (second compound 0.1 µM, first compound 3 µM) of 21.5%. For the same compound, the viability, T/C (second compound 0.316 µM, first compound 0.00949 µM) was 72.7%, the viability, T/C (second compound 0.316 µM, first compound 0.03 µM) was 73.5% and the viability, T/C (second compound 0.316 µM, first compound 0.0949 µM) was 61.8%. The viability, T/C (second compound 0.316 µM, first compound 0.3 µM) was 28%, the viability, T/C (second compound 0.316 µM, first compound 0.949 µM) was 23.1% and the viability, T/C (second compound 0.316 µM, first compound 3 µM) was 21.4%. For the same compound, the viability, T/C (second compound 1 µM, first compound 0.00949 µM) was 51.8%, the viability, T/C (second compound 1 µM, first compound 0.03 µM) was 33.7% and the viability, T/C (second compound 1 µM, first compound 0.0949 µM) was 14.7%. It also gave a viability, T/C (second compound 1 µM, first compound 0.3 µM) of 9.95%, a viability, T/C (second compound 1 µM, first compound 0.949 µM) of 2.29% and a viability, T/C (second compound 1 µM, first compound 3 µM) of 11.6%. For the same compound, the viability, T/C (second compound 3.16 µM, first compound 0.00949 µM) was 23.3%, the viability, T/C (second compound 3.16 µM, first compound 0.03 µM) was 14.8% and the viability, T/C (second compound 3.16 µM, first compound 0.0949 µM) was 11.7%. The viability, T/C (second compound 3.16 µM, first compound 0.3 µM) was 1.87%, the viability, T/C (second compound 3.16 µM, first compound 0.949 µM) was 1.14% and the viability, T/C (second compound 3.16 µM, first compound 3 µM) was 3.62%. It also gave a viability, T/C (second compound 10 µM, first compound 0.00949 µM) of 15.3%, a viability, T/C (second compound 10 µM, first compound 0.03 µM) of 13.7% and a viability, T/C (second compound 10 µM, first compound 0.0949 µM) of 8.71%. It also gave a viability, T/C (second compound 10 µM, first compound 0.3 µM) of 1.11%, a viability, T/C (second compound 10 µM, first compound 0.949 µM) of 2.71% and a viability, T/C (second compound 10 µM, first compound 3 µM) of 1.28%.
For `C=CC(=O)N1CCN(c2nc(=O)n(-c3c(C)ccnc3C(C)C)c3nc(-c4c(O)cccc4F)c(F)cc23)C(C)C1` (configuration not stated) + CNC(=O)c1ccc(Nc2nc(OC3CCCC3)c3c(-c4ccc5nc(C)oc5c4)c[nH]c3n2)c(OC)c1, the IC50 (second compound 0.0316 µM) was > 10000 nM, the IC50 (second compound 0.1 µM) was > 10000 nM and the IC50 (second compound 0.316 µM) was > 10000 nM. The IC50 (second compound 1 µM) was < 31.6 nM, the IC50 (second compound 3.16 µM) was < 31.6 nM and the IC50 (second compound 10 µM) was < 31.6 nM. For the same compound, the viability, T/C [1] was 107%, the viability, T/C [2] was 96.7% and the viability, T/C [3] was 111%. For the same compound, the viability, T/C [4] was 128%, the viability, T/C [5] was 117% and the viability, T/C [6] was 113%. It also gave a viability, T/C [7] of 104%, a viability, T/C [8] of 98.5% and a viability, T/C [9] of 97.5%. For the same compound, the viability, T/C [10] was 107%, the viability, T/C [11] was 102% and the viability, T/C [12] was 95.2%. The viability, T/C [13] was 85.7%, the viability, T/C [14] was 83.5% and the viability, T/C [15] was 74.8%. It also gave a viability, T/C [16] of 78.3%, a viability, T/C [17] of 94.1% and a viability, T/C [18] of 82.2%. It also gave a viability, T/C [19] of 51.7%, a viability, T/C [20] of 35.4% and a viability, T/C [21] of 45.4%. It also gave a viability, T/C [22] of 47.8%, a viability, T/C [23] of 41.4% and a viability, T/C [24] of 30.9%. It also gave a viability, T/C [25] of 23.3%, a viability, T/C [26] of 25.6% and a viability, T/C [27] of 26.6%. It also gave a viability, T/C [28] of 26.3%, a viability, T/C [29] of 30.4% and a viability, T/C [30] of 19.4%. It also gave a viability, T/C [31] of 18.8%, a viability, T/C [32] of 23.5% and a viability, T/C [33] of 20.9%. It also gave a viability, T/C [34] of 24.5%, a viability, T/C [35] of 19.4% and a viability, T/C [36] of 16.4%.

Source: PubChem BioAssay AID2060626 (Molecular Pharmacology Branch, DTP, NCI, 2025)
